Structures can show the parent of a compound that is named as a salt.
What follows are molecules tested on NLRP3 inflammasome (assay: IL-1β Secretion Assay (NLRP3-dependent IL-1β secretion in PMA-differentiated THP-1 cells, nigericin activation, HTRF)). Conditions: Homo sapiens, THP-1, THP-1 cells, 100 ng/mL PMA 24 h, compound 20 h, 2.5 μM Nigericin 3 h; read-out: IC50 IL-1β Inhibition.
Type: cell-based
Experimental: Cells were washed 1× with 100 ul PBS and replaced with fresh RPMI+5% FBS. Compounds were serial diluted in DMSO with 3 fold dilution for a total of 7 concentrations.
Compounds, once produced and prepared according to the present invention, can be assessed in variety of assays to characterize their activities. […] IC50 values of IL1β inhibition were calculated from the plot of percentage of inhibition versus the inhibitor concentration by a logistics fit. TABLE I depict examples of compounds according to generic Formulae I. Data which is <1 nM is listed as *****; data 1-10 nM is listed as ****; data 10-100 nM is listed as ***, data 100-300 nM is listed as **, data >300 nM is listed as *.

Question: With `Oc1cc(C(F)(F)F)ccc1-c1nnc(O[C@@H]2CCCNC2)c2ccccc12` [Compound I-21] as the molecule, how does the IC50 read?
Answer: 10 to 100 nM

Question: How did the IC50 turn out when `CN1CCC[C@@H](Nc2nnc(-c3c(O)cc(Cl)cc3F)c3cccn23)C1` [Compound I-432] was run?
Answer: < 1 nM

Question: `CN1CCC[C@@H](Nc2nnc(-c3ccc(Cl)cc3O)c3cccn23)C1` [Compound I-355] was tested. Which IC50 did it give?
Answer: < 1 nM

Question: With `CN1CC[C@H](F)[C@@H](Nc2nnc(-c3ccc(C(F)(F)F)cc3O)c3cccn23)C1` [Compound I-478] as the molecule, how does the IC50 read?
Answer: 10 to 100 nM

Question: For `Oc1cc(OC(F)(F)F)ccc1-c1nnc(N[C@@H]2CCCNC2)n2cccc12` [Compound I-365], which IC50 is on record?
Answer: 10 to 100 nM

Question: With `COc1cc(C(F)(F)F)ccc1-c1nnc(N[C@@H]2CCCN(C)C2)n2cncc12` [Compound I-349, 1-[2-Methoxy-4-(trifluoromethyl)phenyl]-N-[(3R)-1-methyl-3-piperidyl]imidazo[1,5-d][1,2,4]triazin-4-amine] as the molecule, how does the IC50 read?
Answer: 1 to 10 nM

Question: How did the IC50 turn out when `Oc1cc(C(F)(F)F)ccc1-c1nnc(N[C@@H]2CCCN(CC(F)F)C2)n2cccc12` [Compound I-412] was run?
Answer: < 1 nM

Question: `COc1ccc(-c2nnc(N[C@@H]3CCCN(C)C3)n3nc(C)cc23)c(C(F)(F)F)c1` [Compound I-381] was tested. Which IC50 did it give?
Answer: 1 to 10 nM

Question: With `C[C@]1(O)C[C@@H](Nc2nnc(-c3ccc(Cl)cc3O)c3cncn23)C1` [Compound I-549] as the molecule, how does the IC50 read?
Answer: 1 to 10 nM

Question: `Cc1cc(O)c(-c2nnc(N[C@@H]3CCCN(CCOC(F)F)C3)n3cccc23)c(F)c1` [Compound I-344] was tested. Which IC50 did it give?
Answer: < 1 nM

Question: How did the IC50 turn out when `CN1CCC[C@@H](Nc2nnc(-c3ccc(C4CC4)cc3OC(F)F)c3ccncc23)C1` [Compound I-247] was run?
Answer: 1 to 10 nM

Question: For `Cc1ccc(-c2nnc(N[C@@H]3CCCN(C)C3)c3cnccc23)c(OC(F)F)c1` [Compound I-134], which IC50 is on record?
Answer: 1 to 10 nM

Question: With `CN1CC=C(c2ccc(-c3nnc(N[C@@H]4CCCN(C)C4)c4ccccc34)c(O)c2)C1` [Compound I-58] as the molecule, how does the IC50 read?
Answer: 1 to 10 nM

Question: Which IC50 does the source give for `CC(CO)N1CCC[C@H](Nc2nnc(-c3ccc(Br)cc3O)c3cccn23)C1` (stereo partly drawn) [Compound I-552] here?
Answer: 1 to 10 nM

Question: For `CN1CCC[C@@H](Nc2nnc(-c3ccc(Br)cc3O)c3ccnn23)C1` [Compound I-452], which IC50 is on record?
Answer: 1 to 10 nM

Question: How did the IC50 turn out when `CC(C)(O)CNc1nnc(-c2ccc(C(F)(F)F)cc2OC(F)F)c2cccn12` [Compound I-536] was run?
Answer: 10 to 100 nM

Question: `Oc1cc(Cl)ccc1-c1nnc(N[C@@H]2CCCN(CC(F)(F)F)C2)n2cncc12` [Compound I-558] was tested. Which IC50 did it give?
Answer: 1 to 10 nM

Question: For `CC(C)(O)CNc1nnc(-c2ccc(C(F)(F)F)cc2C(F)(F)F)c2cccn12` [Compound I-531], which IC50 is on record?
Answer: 10 to 100 nM

Question: `CN1CCC[C@@H](Nc2nnc(-c3ccc(C(F)(F)F)cc3F)c3ccncc23)C1` [Compound I-128] was tested. Which IC50 did it give?
Answer: 1 to 10 nM

Question: With `CN1CCC(c2ccc(-c3nnc(N[C@@H]4CCCN(C)C4)c4ccccc34)c(O)c2)C1` (stereo partly drawn) [Compound I-107] as the molecule, how does the IC50 read?
Answer: 10 to 100 nM

Question: How did the IC50 turn out when `CC(C)(O)CN1CCC[C@@H](Nc2nnc(-c3ccc(C(F)(F)F)cc3O)c3ccncc23)C1` [Compound I-286] was run?
Answer: < 1 nM

Question: `Cc1cccc(-c2nnc(N[C@@H]3CCCN(C)C3)c3ccccc23)c1O` [Compound I-27] was tested. Which IC50 did it give?
Answer: < 1 nM

Question: Which IC50 does the source give for `CN1CCC[C@@H](Oc2nnc(-c3ccc(C(F)(F)F)cc3O)c3ccccc23)C1` [Compound I-29] here?
Answer: 1 to 10 nM

Question: How did the IC50 turn out when `CN1CCC[C@@H](Nc2nnc(-c3ccc(C(F)(F)F)cc3O)c3nccn23)C1` [Compound I-398, 2-[5-[[(3R)-1-Methyl-3-piperidyl]amino]imidazo[1,2-d][1,2,4]triazin-8-yl]-5-(trifluoromethyl)phenol formic acid salt] was run?
Answer: > 300 nM

Question: `Cc1cc2c(-c3ccc(C(F)(F)F)cc3O)nnc(N[C@@H]3CCCN(C)C3)n2n1` [Compound I-329, (R)-2-(2-methyl-7-((1-methylpiperidin-3-yl)amino)pyrazolo[1,5-d][1,2,4]triazin-4-yl)-5-(trifluoromethyl)phenol] was tested. Which IC50 did it give?
Answer: < 1 nM

Question: `CN1CCCC[C@H](Nc2nnc(-c3ccc(C(F)(F)F)cc3O)c3ccncc23)C1` [Compound I-186] was tested. Which IC50 did it give?
Answer: 10 to 100 nM

Question: How did the IC50 turn out when `CO[C@H]1CCC[C@@H](Nc2nnc(-c3ccc(Cl)cc3O)c3cncn23)C1` [Compound I-581] was run?
Answer: 1 to 10 nM
